Row | SMILES | melting point [°C]
1 | O=C(O)c1ccc(-c2nnco2)cc1 | 261 to 263
2 | CN(C)S(=O)(=O)c1cc(NC(=O)CCl)ccc1Cl | 183 to 185
3 | O=S(=O)(Cl)c1c(Cl)ccc2ccccc12 | 65 to 67
4 | Cc1ccc(S(=O)(=O)NC(C)(C)C)cc1N | 124 to 126
5 | O=C(CNCc1cccnc1)Nc1ccc(Cl)cc1 | 81 to 83
6 | O=C(O)Cn1cc(C(F)(F)F)ccc1=O | 218 to 220
7 | CCOC(=O)c1c(C)oc(N)c1C#N | 98 to 100
8 | CC(C)(C)OC(=O)Nc1ccoc1 | 139 to 141
9 | Cc1cc(COc2ccc(C=O)cc2)oc1C(=O)O | 179 to 181
10 | O=C(O)CCc1ccc(S(=O)(=O)N2CCCCCC2)cc1 | 122 to 124
11 | O=C(c1ccc(Br)cc1)C1CCOCC1 | 99 to 101
12 | Nc1cc(C(=O)Nc2ccccc2)ccc1Cl | 199 to 201
13 | O=C(CCl)N1CCc2cc(S(=O)(=O)N3CCCCC3)ccc21 | 185 to 187
14 | COC(=O)c1ccncc1O | 149 to 151
15 | Nc1ccc(N2CCNC(=O)C2)cc1 | 167 to 169
16 | Nc1ccccc1CN1CCc2ccccc21 | 75 to 77
17 | C/C(=N/O)c1ccc2c(c1)CCO2 | 122 to 124
18 | NC(=S)c1cccc(NC(=O)C2CC2)c1 | 181 to 183
19 | Cc1cccc(NC(=O)CCN)n1 | 105 to 106
20 | Cc1nc(COc2ccc(C(=O)O)cc2)no1 | 197 to 199
21 | CCOC(=O)c1cnccn1 | 48 to 50
22 | NCCCN1CCCC(C(N)=O)C1 (stereo not given) | 71 to 73
23 | O=C(O)C(Oc1ccc(Br)cc1Cl)c1ccccc1 (stereo not given) | 135 to 137
24 | CSc1ccc(-c2nc(=N)s[nH]2)cc1 | 189 to 191

Row | SMILES | melting point [°C]
25 | O=C(O)COc1ccc(N2CCCC2=O)cc1 | 150 to 155
26 | Cc1ncc(C(=O)O)c(Br)c1Cl | 129 to 131
27 | CC(C)(C)OC(=O)Nc1ccc(CC(=O)O)cc1 | 153 to 155
28 | O=C(O)CCS(=O)(=O)c1ccc2c(c1)OCCO2 | 154 to 156
29 | CC(C)(C)OC(=O)NC(COS(C)(=O)=O)COS(C)(=O)=O | 96 to 98
30 | NC1CN(S(=O)(=O)c2ccc3c(c2)OCCO3)C1 | 124 to 126
31 | COc1ccc(C(=O)N2CCOCC2)cc1N | 150 to 152
32 | CCC(NC(N)=O)C(=O)O (stereo not given) | 174 to 176
33 | Cc1cc(C)nc(-n2[nH]c(C(=O)O)cc2=O)n1 | 246 to 248
34 | O=C(O)c1csc(-c2cc(Br)cs2)n1 | 229 to 231
35 | Cc1cc(C)cc(-n2nc(C)cc2N)c1 | 95 to 97
36 | Nc1cc(=O)[nH]c(S)n1 | 300 to 302
37 | Oc1cc(C(F)(F)F)nc(-c2cccnc2)n1 | 277 to 279
38 | O=C(O)c1ccc(CO)o1 | 164 to 166
39 | O=C(c1ccccc1)c1cc(Cl)ccc1Cl | 91 to 93
40 | Nc1ncc(Cc2ccc(F)c(F)c2F)s1 | 105 to 107
41 | Cc1ccc(C(=O)O)c(Br)c1 | 143 to 147
42 | O=C(CCl)N(C1CCCC1)C1CCS(=O)(=O)C1 (stereo not given) | < 17
43 | Nc1ccc(S(F)(F)(F)(F)F)cc1Br | 58 to 60
44 | O=C(O)c1ccc(Cl)c(S(=O)(=O)NCc2ccco2)c1 | 133 to 135
45 | Cc1cc(Cl)ccc1OCc1n[nH]c(-c2ccccn2)n1 | 174 to 176
46 | O=C1NC(=O)C(Cc2ccc(O)cc2)N1 (stereo not given) | 267 to 269
47 | Nc1nc2c(s1)CN(Cc1ccccc1)CC2 | 95 to 98
48 | CCOC(=O)COc1ccccc1C(C)=O | 44 to 46

Row | SMILES | melting point [°C]
49 | O=[N+]([O-])c1ccccc1CSc1ncccn1 | 60 to 62
50 | CC(C)N(C)S(=O)(=O)c1ccc(F)c(C(=O)O)c1 | 194 to 196
51 | Cc1nc(-c2ccc(C)c(NC(=O)CCl)c2)n[nH]1 | 297 to 299
52 | COc1cc(Br)cc([N+](=O)[O-])c1 | 86 to 88
53 | O=C(O)COc1ccc(C2SCCCS2)cc1 | 201 to 203
54 | Nc1cc2c(cc1[N+](=O)[O-])OCC(=O)N2 | 323 to 325
55 | CS(=O)(=O)CCC1NC(=O)NC1=O (stereo not given) | 160 to 162
56 | O=C(O)c1cccc(Nc2cnccn2)c1 | 239 to 241
57 | Cc1ccc(S(=O)(=O)Oc2cccnc2[N+](=O)[O-])cc1 | 83 to 85
58 | NC(C(=O)O)(c1cc(F)cc(F)c1)C(F)(F)F (stereo not given) | 121 to 123
59 | Oc1ccc(Oc2ccccn2)cc1 | 142 to 144
60 | O=C(O)CNC(=O)OCC(F)(F)F | 98 to 100
61 | Cc1ccc(S(N)(=O)=O)cc1C(=O)O | 175 to 190
62 | Cc1ccccc1C1CC1C(=O)O (stereo not given) | 64 to 66
63 | O=C(O)c1ccc(OCC(F)(F)F)nn1 | 143 to 145
64 | NS(=O)(=O)c1ccc2c(c1)NCCC2 | 164 to 166
65 | Nc1ccc(-c2cc[nH]c2)cc1 | 99 to 101
66 | Cc1cc(C(=O)O)c2ccc(F)cc2n1 | 267 to 269
67 | CC(Oc1ccc(Cl)cc1)C(=O)O (stereo not given) | 111 to 113
68 | Oc1cccc2ccc(N3CCCC3)nc12 | 85 to 87
69 | O=C1NCc2ccccc2N1CCO | 107 to 109
70 | Nc1cnc(Cl)c(C(=O)O)c1 | 193 to 195
71 | COc1ccc(NS(C)(=O)=O)c(N)c1 | 144 to 146
72 | O=C(O)CNS(=O)(=O)c1cccc(C(F)(F)F)c1 | 80 to 82

Row | SMILES | melting point [°C]
73 | O=C(O)C1CCN(C(=O)c2cccc3ccccc23)CC1 | 190 to 192
74 | NNC(=O)c1ccoc1 | 128 to 130
75 | Cc1c(Cl)nc(N(C)C)nc1Cl | 54 to 56
76 | CC(CO)NC(=O)c1ccc(N)cc1 (stereo not given) | 174 to 176
77 | Cc1ccc(NS(=O)(=O)c2ccc(C)c(N)c2)c(C)c1 | 111 to 113
78 | Cc1cccc(NC(=O)C=NO)c1C | 110 to 112
79 | Cn1cc(C(=O)O)c(-c2ccc(N)cc2)n1 | 226 to 228
80 | COc1ccccc1NC(=O)c1ccc(NC(=O)CCCl)cc1 | 193 to 195
81 | CC12CCCC(C(=O)O)(CCC1)C2 | 144 to 146
82 | O=C(O)C1(c2ccc(F)cc2)CCCCC1 | 137 to 139
83 | CCCS(=O)(=O)N1CCC(C(=O)O)CC1 | 146 to 148
84 | CC(C)Cc1nnc(N)s1 | 239 to 241
85 | Cc1nnc(-c2ccccc2F)o1 | 37 to 39
86 | N#CC(c1ccccc1)(c1ccc(F)cc1)c1ccc(F)cc1 | 74 to 76
87 | CN(CC(=O)O)c1ccc(C#N)cn1 | 170 to 172
88 | Nc1nnc(-c2cccc(Cl)c2)[nH]1 | 219 to 221
89 | Nc1c(C(=O)O)ccc2cccnc12 | 207 to 209
90 | O=[N+]([O-])c1cc(Br)ccc1S(=O)(=O)Cl | 95 to 97
91 | CCOC(=O)Cc1csc(NC(=O)Cc2ccccc2)n1 | 92 to 94
92 | COc1ccc(-c2nn(-c3ccccc3)cc2CCl)cc1 | 89 to 91
93 | CN(C)CCCNC(=O)c1cccnc1Cl | 97 to 101
94 | NC(=O)CCc1nnc(S)n1Cc1ccco1 | 204 to 206
95 | O=C(CCl)c1ccc2c(c1)-c1cc(C(=O)CCl)ccc1C2 | 200 to 202
96 | CCOC(=O)CC(=O)c1[nH]c(C)c(C(=O)OCC)c1C | 141 to 143

Row | SMILES | melting point [°C]
97 | CCOc1ccc(Cl)cc1C(C)=O | 79 to 81
98 | COc1ccc(NS(=O)(=O)c2ccc(C)c(N)c2)cc1 | 127 to 129
99 | O=S(=O)(Cl)c1ccc(CCCl)cc1 | 53 to 55
100 | O=C(O)Cc1ccc(NC(=O)c2cc3ccccc3o2)cc1 | 189 to 191
101 | Cc1ccc(S)nc1 | 199 to 201
102 | CCCNC(=O)c1cccc(C(=O)O)c1 | 229 to 231
103 | COc1ccc(/C=C/C(=O)O)cc1F | 222 to 224
104 | CN1CCN(C(=O)c2ccc(N)cc2)CC1 | 135 to 137
105 | COc1ccc(C(=O)O)cc1S(=O)(=O)N1CCCC1 | 218 to 220
106 | O=S(=O)(Cl)c1ccc(OCC(F)(F)F)cc1 | 55 to 57
107 | CN(C)c1nc(CC#N)nc(=N)[nH]1 | 139 to 141
108 | Cn1c(N)nc2c(F)cccc21 | 163 to 165
109 | O=C1c2ccccc2C(=O)N1CCc1nn[nH]n1 | 256 to 258
110 | Cc1cc(-n2c(C)c[nH]c2=O)no1 | 134 to 136
111 | Cc1cc(N2CCCS2(=O)=O)ccc1Br | 131 to 133
112 | CC(C)C(Br)C(=O)Nc1ccccc1F (stereo not given) | 98 to 100
113 | NC1(C(=O)O)CCOCC1 | 268 to 270
114 | Cn1cnc2cc(C(=O)O)ccc21 | 313 to 315
115 | CCOc1ccc(Nc2ncccc2C(=O)O)cc1 | 189 to 191
116 | Cc1oncc1C(=O)Nc1cccc(C(=O)O)c1 | 245 to 247
117 | CC1=NN(c2ccc(C(=O)O)cc2)CC1 | 261 to 263
118 | CC(=O)c1csc(-c2csc(C)n2)c1 | 125 to 127
119 | O=C(CCn1ccnc1)NC1CCC(C(=O)O)CC1 (stereo not given) | 229 to 231
120 | Cn1cc(C=O)c(-c2cccnc2)n1 | 86 to 88

Row | SMILES | melting point [°C]
121 | O=C(O)C1CCN(c2nc3ccccc3o2)CC1 | 147 to 149
122 | O=C1Nc2c(Br)cc(F)cc2C1=O | 215 to 217
123 | COc1cc(C)ccc1Oc1ccc(N)cn1 | 106 to 108
124 | NCc1ccc(N2CCC(CO)CC2)cc1 | 138 to 140
125 | C#CCOc1ncccc1C(=O)O | 120 to 122
126 | Cc1cc(C(C)(C)C)cc(C)c1S(=O)(=O)N1CCNCC1 | 124 to 126
127 | O=C(CCCl)Nc1ccc(S(=O)(=O)N2CCCC2)cc1 | 174 to 176
128 | O=C(O)c1sccc1S(=O)(=O)NCc1cccs1 | 138 to 140
129 | O=Cc1cccc2nccn12 | 123 to 125
130 | NNC(=O)C(=O)NCc1ccc(Cl)cc1 | 191 to 193
131 | c1cc(-n2ccnc2)ccn1 | 104 to 106
132 | Cc1noc(-c2ccc(C)c([N+](=O)[O-])c2)n1 | 100 to 102
133 | Nc1ccc(C(=O)N2CCCCC2)c(Cl)c1 | 148 to 150
134 | Nc1cc(Cl)c(NC(=O)c2ccsc2)c(Cl)c1 | 206 to 208
135 | O=C(O)CCCOc1ccc(Br)cc1 | 130 to 132
136 | CC(=O)c1ccc(N2CCCCC2)c(F)c1 | 67 to 69
137 | Cc1cc(C(=O)O)nn1C(C)C1CC1 (stereo not given) | 130 to 132
138 | O=C(O)C(Oc1ccc(Cl)cc1Br)c1ccccc1 (stereo not given) | 135 to 137
139 | Nc1ncnc(Nc2ccc(F)cc2)n1 | 249 to 251
140 | CCCCCc1sc(N)c(C(N)=O)c1C | 129 to 131
